Assay results reported in PMC4865845, “A human genome-wide loss-of-function screen identifies effective chikungunya antiviral drugs” (Nature Communications, 2016).

tested on: CHIKV; assay type: cell-based, chikungunya virus

Question: “s15796 (CTACGATTCTGGTGGAATA; chemistry not given here)” was tested. Which Score_si1 did it give?
Answer: The Score_si1 was 1.5.

Question: For “s15797 (GGAATTACGGAGATATAGA; chemistry not given here)”, which Score_si3 is on record?
Answer: Its Score_si3 is 1.45.

Question: “s15798 (GAATTACGGAGATATAGAA; chemistry not given here)” was tested. Which Score_si2 did it give?
Answer: Its Score_si2 is 1.46.

Question: “s16045 (GGTTTATCCACGGTAAAGA; chemistry not given here) [reference compound]” was tested. Which Score_si4 did it give?
Answer: The Score_si4 was -0.44.

Question: How did the Score_si3 turn out when “s16046 (GCACAGATCCTTCCGTTTA; chemistry not given here) [reference compound]” was run?
Answer: Its Score_si3 is -0.45.

Question: For “s16047 (GAACCCATATTATTAGTGA; chemistry not given here) [reference compound]”, which Score_si2 is on record?
Answer: Its Score_si2 is -0.72.

Question: How did the Score_si2 turn out when “s16316 (GAATTAGGAAGGACTATTT; chemistry not given here)” was run?
Answer: Its Score_si2 is 0.85.

Question: Which Score_si4 does the source give for “s16317 (GAACGAGTCCTTGAAGGTT; chemistry not given here)” here?
Answer: The Score_si4 was 0.08.

Question: Which Score_si3 does the source give for “s16318 (AGGCATCTTTGAGACGATT; chemistry not given here)” here?
Answer: Its Score_si3 is 0.61.

Question: For “s16459 (GATGGATCCATGTAATACA; chemistry not given here)”, which Score_si4 is on record?
Answer: Its Score_si4 is 0.81.

Question: With “s16461 (GGTCAATCCTAGTATCTCT; chemistry not given here)” as the substance, how does the Score_si3 read?
Answer: The Score_si3 was 0.88.

Question: Which Score_si3 does the source give for “s16633 (CAACCACAATGTTCGTAAA; chemistry not given here)” here?
Answer: Its Score_si3 is 1.99.

Question: With “s16634 (GCATAGTTTCGGTCATCTA; chemistry not given here)” as the substance, how does the Score_si1 read?
Answer: Its Score_si1 is 2.03.

Question: How did the Score_si2 turn out when “s16635 (GAGCACTACTTGTACATGA; chemistry not given here)” was run?
Answer: The Score_si2 was 2.02.

Question: Which Score_si1 does the source give for “s16837 (CAATGATCCAATCCACGAA; chemistry not given here)” here?
Answer: Its Score_si1 is 1.36.

Question: How did the Score_si2 turn out when “s16996 (CAACATTGGTGGGAATGCA; chemistry not given here)” was run?
Answer: The Score_si2 was 1.51.

Question: “s16997 (CAGCTTCCATTATGCCCAA; chemistry not given here)” was tested. Which Score_si3 did it give?
Answer: The Score_si3 was 0.97.

Question: “s16998 (GAAATTCCATGTCATTGTA; chemistry not given here)” was tested. Which Score_si4 did it give?
Answer: The Score_si4 was 0.65.

Question: “s16999 (GCACGTAACAGCTAAGGAA; chemistry not given here)” was tested. Which Score_si2 did it give?
Answer: Its Score_si2 is 1.29.

Question: With “s17000 (GATGAAAGGTTACAATCCA; chemistry not given here)” as the substance, how does the Score_si3 read?
Answer: The Score_si3 was 1.29.

Question: For “s17018 (GGAAATAGGTCTAGTACTA; chemistry not given here)”, which Score_si3 is on record?
Answer: The Score_si3 was 1.2.

Question: For “s17019 (CCACGTGATAAATCAAGAA; chemistry not given here)”, which Score_si2 is on record?
Answer: Its Score_si2 is 1.29.

Question: “s17187 (GGATTGACCTCACCCAGAA; chemistry not given here)” was tested. Which Score_si1 did it give?
Answer: Its Score_si1 is 2.03.

Question: Which Score_si3 does the source give for “s17301 (GCCTGGTATTTTGAAATCA; chemistry not given here)” here?
Answer: The Score_si3 was 0.7.

Question: With “s17302 (GCTCCTTTAGGTTATGATA; chemistry not given here)” as the substance, how does the Score_si4 read?
Answer: Its Score_si4 is -0.05.

Question: How did the Score_si2 turn out when “s17590 (CAACAGTTCTCAGACCAAA; chemistry not given here) [reference compound]” was run?
Answer: Its Score_si2 is -0.8.

Question: “s17591 (CGATATGAACCTGACAGTA; chemistry not given here) [reference compound]” was tested. Which Score_si3 did it give?
Answer: The Score_si3 was -0.15.

Question: How did the Score_si4 turn out when “s17592 (GCAACTCTCCTTCACCAAT; chemistry not given here) [reference compound]” was run?
Answer: The Score_si4 was -0.08.

Question: “s17802 (GGAGTTAAACATAGATGTA; chemistry not given here)” was tested. Which Score_si3 did it give?
Answer: The Score_si3 was 1.28.

Question: With “s17901 (GGAAATCGGCCTACAAGAT; chemistry not given here)” as the substance, how does the Score_si3 read?
Answer: The Score_si3 was 1.51.

Question: Which Score_si4 does the source give for “s18074 (CCTCGAGACTATACGGTTA; chemistry not given here) [reference compound]” here?
Answer: The Score_si4 was -0.5.

Question: With “s18076 (GAAATACCCTATTACCAAA; chemistry not given here) [reference compound]” as the substance, how does the Score_si3 read?
Answer: Its Score_si3 is -0.61.

Question: For “s18077 (CCTGTTCATTGATCGAACA; chemistry not given here) [reference compound]”, which Score_si3 is on record?
Answer: The Score_si3 was -0.59.

Question: “s18079 (CAATAGTAAAGGGATATAA; chemistry not given here) [reference compound]” was tested. Which Score_si4 did it give?
Answer: The Score_si4 was -0.28.

Question: Which Score_si2 does the source give for “s18239 (CGGTGACTCTTTATGCACA; chemistry not given here)” here?
Answer: Its Score_si2 is 1.37.

Question: For “s18240 (GATTGATGCTGGAAGTAGA; chemistry not given here)”, which Score_si3 is on record?
Answer: The Score_si3 was 1.21.

Question: Which Score_si1 does the source give for “s18241 (GCTTGATGGTTCAACTCCA; chemistry not given here)” here?
Answer: Its Score_si1 is 2.01.

Question: With “s18269 (CCATTGCGGAGATCAAGAA; chemistry not given here)” as the substance, how does the Score_si4 read?
Answer: Its Score_si4 is 0.18.

Question: Which Score_si3 does the source give for “s18271 (CCTCTTCACTAAGACCCAT; chemistry not given here)” here?
Answer: The Score_si3 was 1.67.

Question: How did the Score_si3 turn out when “s18704 (sense GCAGATTATTTGCAAGCGA; chemistry not given here) [reference compound]” was run?
Answer: Its Score_si3 is -0.73.

Question: How did the Score_si2 turn out when “s18705 (sense GCTCGTTACCTACATAGTA; chemistry not given here) [reference compound]” was run?
Answer: The Score_si2 was -0.84.

Question: “s18706 (sense GAATCTGAACGAACGATAT; chemistry not given here) [reference compound]” was tested. Which Score_si4 did it give?
Answer: The Score_si4 was -0.67.

Question: How did the Score_si3 turn out when “s18906 (sense GAAGGAATTTCATTTGACA; chemistry not given here)” was run?
Answer: Its Score_si3 is 1.68.

Question: “s18908 (sense GCAGATCACATGAAGAGAA; chemistry not given here)” was tested. Which Score_si2 did it give?
Answer: The Score_si2 was 1.75.

Question: “s19038 (sense GGAATATTCTTCAGCTACA; chemistry not given here)” was tested. Which Score_si3 did it give?
Answer: Its Score_si3 is 1.51.

Question: Which Score_si4 does the source give for “s19040 (sense GTACATAACATCAATTTCA; chemistry not given here)” here?
Answer: The Score_si4 was 0.32.

Question: How did the Score_si3 turn out when “s19089 (sense GGATAAGACAGTAACCCGA; chemistry not given here) [reference compound]” was run?
Answer: Its Score_si3 is -0.56.

Question: For “s19090 (sense GGATCTGACTATTCGCACT; chemistry not given here) [reference compound]”, which Score_si4 is on record?
Answer: The Score_si4 was 0.04.

Question: “s19091 (sense CAACAACCTTACACGAGTA; chemistry not given here) [reference compound]” was tested. Which Score_si2 did it give?
Answer: The Score_si2 was -0.78.

Question: For “s19989 (sense CTATGCTACCCTCTACTTT; chemistry not given here)”, which Score_si4 is on record?
Answer: Its Score_si4 is 0.18.

Question: With “s19990 (sense GGCTCTGACTACAAACTGA; chemistry not given here)” as the substance, how does the Score_si3 read?
Answer: Its Score_si3 is 0.89.

Question: For “s20340 (sense CAGGCTATCTGAACACGGT; chemistry not given here)”, which Score_si3 is on record?
Answer: The Score_si3 was 1.49.

Question: For “s20508 (sense CACTTGAGGAGTTACTGAA; chemistry not given here) [reference compound]”, which Score_si4 is on record?
Answer: Its Score_si4 is -0.76.

Question: For “s20509 (sense GGACGGCCCAAATCCAAAA; chemistry not given here) [reference compound]”, which Score_si3 is on record?
Answer: The Score_si3 was -0.99.

Question: With “s20629 (sense GGAGAAAGAATCAACGGAA; chemistry not given here)” as the substance, how does the Score_si2 read?
Answer: Its Score_si2 is 2.

Question: Which Score_si4 does the source give for “s20630 (sense GCAAGCTGCTGATCGAGTT; chemistry not given here)” here?
Answer: Its Score_si4 is 0.85.

Question: Which Score_si3 does the source give for “s20631 (sense GGACGGAAGCGAAAATCGA; chemistry not given here)” here?
Answer: Its Score_si3 is 1.89.

Question: Which Score_si3 does the source give for “s20649 (sense GAATTACGGAGTCAACAAA; chemistry not given here) [reference compound]” here?
Answer: Its Score_si3 is -1.04.

Question: “s20833 (sense GAATATGACTCTGCAAAGA; chemistry not given here)” was tested. Which Score_si4 did it give?
Answer: Its Score_si4 is 0.65.

Question: Which Score_si2 does the source give for “s21424 (sense GCAGTGAAATATCCATGAT; chemistry not given here)” here?
Answer: Its Score_si2 is 0.74.

Question: For “s21425 (sense GCCTGTTACAGATGACATA; chemistry not given here)”, which Score_si3 is on record?
Answer: Its Score_si3 is 0.63.

Question: Which Score_si2 does the source give for “s21552 (sense TCGCTTCTGTATTTATGTT; chemistry not given here)” here?
Answer: The Score_si2 was 1.41.

Question: How did the Score_si4 turn out when “s21554 (sense CAGTATTGGTTATGAGTCT; chemistry not given here)” was run?
Answer: Its Score_si4 is 0.67.

Question: For “s21624 (sense GGTGTAACCGATTCACTAT; chemistry not given here)”, which Score_si3 is on record?
Answer: Its Score_si3 is 0.86.

Question: “s21625 (sense GCAGCCTTGTTGCTCTTAA; chemistry not given here)” was tested. Which Score_si2 did it give?
Answer: Its Score_si2 is 1.37.

Question: With “s21626 (sense GGCAGTTGATTGTGGATGA; chemistry not given here)” as the substance, how does the Score_si4 read?
Answer: Its Score_si4 is 0.37.

Question: For “s24800 (sense CTATGGATGTTGATGTAGA; chemistry not given here)”, which Score_si2 is on record?
Answer: Its Score_si2 is 1.78.

Question: Which Score_si3 does the source give for “s24801 (sense CCAAGGTCCTGAGGTCTAA; chemistry not given here)” here?
Answer: Its Score_si3 is 1.43.

Question: Which Score_si4 does the source give for “s24923 (sense GGAAGTGAAGGAGTAAGTA; chemistry not given here) [reference compound]” here?
Answer: Its Score_si4 is -0.27.

Question: For “s24924 (sense CAGTCGTCCTCAGATGATA; chemistry not given here) [reference compound]”, which Score_si3 is on record?
Answer: Its Score_si3 is -0.67.

Question: With “s25038 (sense GGTCTTTACTAGGTGTATT; chemistry not given here) [reference compound]” as the substance, how does the Score_si4 read?
Answer: The Score_si4 was -0.18.

Question: How did the Score_si3 turn out when “s25039 (sense CAAATTTCCTGTTAATCGA; chemistry not given here) [reference compound]” was run?
Answer: The Score_si3 was -0.41.

Question: Which Score_si4 does the source give for “s25184 (sense CCCATCAACTTCTCCGTGA; chemistry not given here)” here?
Answer: The Score_si4 was 0.53.

Question: For “s25186 (sense ACTTCTCCGTGATCCTGAA; chemistry not given here)”, which Score_si2 is on record?
Answer: Its Score_si2 is 1.53.

Question: For “s25485 (sense ACTTCCTGTTGGTCTACAA; chemistry not given here)”, which Score_si3 is on record?
Answer: The Score_si3 was 1.19.

Question: For “s25486 (sense GGTCTACAATCGGATGACA; chemistry not given here)”, which Score_si4 is on record?
Answer: The Score_si4 was 1.05.

Question: Which Score_si2 does the source give for “s25487 (sense AGTATTTGTTGGTTCATAA; chemistry not given here)” here?
Answer: Its Score_si2 is 1.54.

Question: Which Score_si3 does the source give for “s25624 (sense GGAATGGTGTTGATACAAA; chemistry not given here) [reference compound]” here?
Answer: Its Score_si3 is -0.7.

Question: With “s25626 (sense CAAATCCTATAGTATAACA; chemistry not given here) [reference compound]” as the substance, how does the Score_si4 read?
Answer: Its Score_si4 is -0.37.

Question: How did the Score_si3 turn out when “s26119 (sense CATGGATGAGTTTACCCAA; chemistry not given here) [reference compound]” was run?
Answer: The Score_si3 was -0.65.

Question: For “s26120 (sense GGCCCTTCATCGATAGCTA; chemistry not given here) [reference compound]”, which Score_si2 is on record?
Answer: The Score_si2 was -0.97.
